According to US20260070945A1, “MACROCYCLIC IMMUNOMODULATORS” (Bristol-Myers Squibb Company, priority 2022, published 2026):
Where a SMILES comes first, the peptide text is derived from it. Bridges are numbered along the chain shown (N, C = ends). [ ]: non-standard residue; d: D form. The star is where a group is joined. Phe(4-COOH) = N[C@@H](Cc1ccc(C(=O)O)cc1)C(=O)O; Bip = N[C@@H](Cc1ccc(-c2ccccc2)cc1)C(=O)O; 4Pal = N[C@@H](Cc1ccncc1)C(=O)O; Cha = N[C@@H](CC1CCCCC1)C(=O)O; Carboxymethyl = O=C(O)C*; NMeA = CN[C@@H](C)C(=O)O; Orn = NCCC[C@H](N)C(=O)O; Aun = NCCCCCCCCCCC(=O)O; Dab = NCC[C@H](N)C(=O)O

These molecules were tested against T1, PD-1/PD-L1 interaction (PE-labeled human PD-L1-Ig binding to Jurkat cell line over-expressing human PD-1) (Homo sapiens, UniProt Q15116) (assay: Jurkat-PD-1 Cell Binding High-Content Screening Assay (CBA)). Conditions: Jurkat-hPD-1 cells, PE-labeled PD-L1-Ig 20 nM final; read-out: Jurkat HPD1 PDL1 IC50.
T1 construct: expressed in transfected cells; host or cells: Jurkat
T1 sequence (Q15116 25-288): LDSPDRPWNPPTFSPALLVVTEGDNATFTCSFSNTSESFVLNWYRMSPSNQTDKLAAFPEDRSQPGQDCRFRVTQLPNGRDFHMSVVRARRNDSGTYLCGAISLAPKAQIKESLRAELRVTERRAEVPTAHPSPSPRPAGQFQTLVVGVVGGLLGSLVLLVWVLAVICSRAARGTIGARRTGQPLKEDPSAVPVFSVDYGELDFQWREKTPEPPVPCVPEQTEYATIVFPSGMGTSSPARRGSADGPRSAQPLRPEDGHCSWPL
Summary of the method: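 High-content imaging read-out of PE-PD-L1-Ig binding (20 nM final, 1 h) to Jurkat-hPD-1 cells, after 2 h compound exposure at 37 °C in DMEM with 10% FCS. Nuclei counterstained with Hoechst 33342 after paraformaldehyde fixation.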
`CC(C)C[C@@H]1NC(=O)[C@H](Cc2c[nH]c3ccccc23)NC(=O)[C@H](CC(=O)O)NC(=O)[C@H](Cc2ccc(C(=O)O)cc2)NC(=O)[C@H](Cc2ccc(OCC(=O)O)cc2)NC(=O)CSC[C@@H](C(=O)N[C@@H](CCN)C(=O)NCCCCCCCCCCC(=O)O)NC(=O)[C@H]([C@@H](C)O)NC(=O)[C@H](C(C)C)NC(=O)[C@H](CC2CCCCC2)NC(=O)[C@H](CCN)NC(=O)[C@@H](CC(C)C)NC(=O)[C@H](C)N(C)C(=O)[C@H](C(C)C)NC(=O)[C@H](Cc2ccc(-c3ccccc3)cc2)NC1=O` [Example 1326] ({CH2CO}-Y(Carboxymethyl)[Phe(4-COOH)]DWL[Bip]V[NMeA][dL][Dab][Cha]VTC[Dab][Aun]-OH; thioether N-14) gave an IC50 of 19.8 nM. In the case of `CC(C)C[C@@H]1NC(=O)[C@H](Cc2c[nH]c3ccccc23)NC(=O)[C@H](CC(=O)O)NC(=O)[C@H](Cc2ccc(C(=O)O)cc2)NC(=O)[C@H](Cc2ccc(OCC(=O)O)cc2)NC(=O)CSC[C@@H](C(=O)N[C@@H](CCCN)C(=O)NCCCCCCCCCCC(=O)O)NC(=O)[C@H](CCC(=O)O)NC(=O)[C@H](C(C)C)NC(=O)[C@H](CC2CCCCC2)NC(=O)[C@H](CCN)NC(=O)[C@@H](CC(C)C)NC(=O)[C@H](C)N(C)C(=O)[C@H](C(C)C)NC(=O)[C@H](Cc2ccc(-c3ccccc3)cc2)NC1=O` [Example 1328] ({CH2CO}-Y(Carboxymethyl)[Phe(4-COOH)]DWL[Bip]V[NMeA][dL][Dab][Cha]VEC[Orn][Aun]-OH; thioether N-14), the IC50 is reported as 24 nM. For `CC(C)C[C@@H]1NC(=O)[C@H](Cc2c[nH]c3ccccc23)NC(=O)[C@H](CC(=O)O)NC(=O)[C@H](Cc2ccncc2)NC(=O)[C@H](Cc2ccc(OCC(=O)O)cc2)NC(=O)CSC[C@@H](C(=O)N[C@@H](CCN)C(=O)NCCCCCCCCCCC(=O)O)NC(=O)[C@H]([C@@H](C)O)NC(=O)[C@H](C(C)C)NC(=O)[C@H](CC2CCCCC2)NC(=O)[C@H](CCN)NC(=O)[C@@H](CC(C)C)NC(=O)[C@H](C)N(C)C(=O)[C@H](C(C)C)NC(=O)[C@H](Cc2ccc(-c3ccccc3)cc2)NC1=O` [Example 1329] ({CH2CO}-Y(Carboxymethyl)[4Pal]DWL[Bip]V[NMeA][dL][Dab][Cha]VTC[Dab][Aun]-OH; thioether N-14), the IC50 was 15.3 nM. `CC(C)C[C@@H]1NC(=O)[C@H](Cc2c[nH]c3ccccc23)NC(=O)[C@H](CC(=O)O)NC(=O)[C@H](Cc2ccncc2)NC(=O)[C@H](Cc2ccc(OCC(=O)O)cc2)NC(=O)CSC[C@@H](C(=O)N[C@@H](CCN)C(=O)NCCCCCCCCCCC(=O)O)NC(=O)[C@H](CCC(=O)O)NC(=O)[C@H](C(C)C)NC(=O)[C@H](CC2CCCCC2)NC(=O)[C@H](CCN)NC(=O)[C@@H](CC(C)C)NC(=O)[C@H](C)N(C)C(=O)[C@H](C(C)C)NC(=O)[C@H](Cc2ccc(-c3ccccc3)cc2)NC1=O` [Example 1330] ({CH2CO}-Y(Carboxymethyl)[4Pal]DWL[Bip]V[NMeA][dL][Dab][Cha]VEC[Dab][Aun]-OH; thioether N-14) was tested, and the IC50 was 14.1 nM. For `CC(C)C[C@@H]1NC(=O)[C@H](Cc2c[nH]c3ccccc23)NC(=O)[C@H](CC(=O)O)NC(=O)[C@H](Cc2ccncc2)NC(=O)[C@H](Cc2ccc(OCC(=O)O)cc2)NC(=O)CSC[C@@H](C(=O)N[C@@H](CCCN)C(=O)NCCCCCCCCCCC(=O)O)NC(=O)[C@H]([C@@H](C)O)NC(=O)[C@H](C(C)C)NC(=O)[C@H](CC2CCCCC2)NC(=O)[C@H](CCN)NC(=O)[C@@H](CC(C)C)NC(=O)[C@H](C)N(C)C(=O)[C@H](C(C)C)NC(=O)[C@H](Cc2ccc(-c3ccccc3)cc2)NC1=O` [Example 1331] ({CH2CO}-Y(Carboxymethyl)[4Pal]DWL[Bip]V[NMeA][dL][Dab][Cha]VTC[Orn][Aun]-OH; thioether N-14), the IC50 was 12.3 nM. `CC(C)C[C@@H]1NC(=O)[C@H](Cc2c[nH]c3ccccc23)NC(=O)[C@H](CC(=O)O)NC(=O)[C@H](Cc2ccncc2)NC(=O)[C@H](Cc2ccc(OCC(=O)O)cc2)NC(=O)CSC[C@@H](C(=O)N[C@@H](CCCN)C(=O)NCCCCCCCCCCC(=O)O)NC(=O)[C@H](CCC(=O)O)NC(=O)[C@H](C(C)C)NC(=O)[C@H](CC2CCCCC2)NC(=O)[C@H](CCN)NC(=O)[C@@H](CC(C)C)NC(=O)[C@H](C)N(C)C(=O)[C@H](C(C)C)NC(=O)[C@H](Cc2ccc(-c3ccccc3)cc2)NC1=O` [Example 1332] ({CH2CO}-Y(Carboxymethyl)[4Pal]DWL[Bip]V[NMeA][dL][Dab][Cha]VEC[Orn][Aun]-OH; thioether N-14) showed an IC50 of 14.5 nM. With `CC(C)C[C@@H]1NC(=O)[C@H](Cc2c[nH]c3ccccc23)NC(=O)[C@H](CC(=O)O)NC(=O)[C@H](Cc2ccc(OCC(=O)O)cc2)NC(=O)[C@H](Cc2ccccc2)NC(=O)CSC[C@@H](C(=O)N[C@@H](CCN)C(=O)NCCCCCCCCCCC(=O)O)NC(=O)[C@H]([C@@H](C)O)NC(=O)[C@H](C(C)C)NC(=O)[C@H](CC(C)C)NC(=O)[C@H](CC(N)=O)NC(=O)[C@@H](CC(C)C)NC(=O)[C@H](C)N(C)C(=O)[C@H](C(C)C)NC(=O)[C@H](Cc2ccc(-c3ccccc3)cc2)NC1=O` [Example 1333] ({CH2CO}-FY(Carboxymethyl)DWL[Bip]V[NMeA][dL]NLVTC[Dab][Aun]-OH; thioether N-14) the IC50 was 67.3 nM. `CC(C)C[C@@H]1NC(=O)[C@H](Cc2c[nH]c3ccccc23)NC(=O)[C@H](CC(=O)O)NC(=O)[C@H](Cc2ccc(OCC(=O)O)cc2)NC(=O)[C@H](Cc2ccccc2)NC(=O)CSC[C@@H](C(=O)N[C@@H](CCN)C(=O)NCCCCCCCCCCC(=O)O)NC(=O)[C@H](CCC(=O)O)NC(=O)[C@H](C(C)C)NC(=O)[C@H](CC(C)C)NC(=O)[C@H](CC(N)=O)NC(=O)[C@@H](CC(C)C)NC(=O)[C@H](C)N(C)C(=O)[C@H](C(C)C)NC(=O)[C@H](Cc2ccc(-c3ccccc3)cc2)NC1=O` [Example 1334] ({CH2CO}-FY(Carboxymethyl)DWL[Bip]V[NMeA][dL]NLVEC[Dab][Aun]-OH; thioether N-14) gave an IC50 of 117 nM. `CC(C)C[C@@H]1NC(=O)[C@H](Cc2c[nH]c3ccccc23)NC(=O)[C@H](CC(=O)O)NC(=O)[C@H](Cc2ccc(OCC(=O)O)cc2)NC(=O)[C@H](Cc2ccccc2)NC(=O)CSC[C@@H](C(=O)N[C@@H](CCCN)C(=O)NCCCCCCCCCCC(=O)O)NC(=O)[C@H]([C@@H](C)O)NC(=O)[C@H](C(C)C)NC(=O)[C@H](CC(C)C)NC(=O)[C@H](CC(N)=O)NC(=O)[C@@H](CC(C)C)NC(=O)[C@H](C)N(C)C(=O)[C@H](C(C)C)NC(=O)[C@H](Cc2ccc(-c3ccccc3)cc2)NC1=O` [Example 1335] ({CH2CO}-FY(Carboxymethyl)DWL[Bip]V[NMeA][dL]NLVTC[Orn][Aun]-OH; thioether N-14) showed an IC50 of 59 nM. Work on `CC(C)C[C@@H]1NC(=O)[C@H](Cc2c[nH]c3ccccc23)NC(=O)[C@H](CC(=O)O)NC(=O)[C@H](Cc2ccc(OCC(=O)O)cc2)NC(=O)[C@H](Cc2ccccc2)NC(=O)CSC[C@@H](C(=O)N[C@@H](CCCN)C(=O)NCCCCCCCCCCC(=O)O)NC(=O)[C@H](CCC(=O)O)NC(=O)[C@H](C(C)C)NC(=O)[C@H](CC(C)C)NC(=O)[C@H](CC(N)=O)NC(=O)[C@@H](CC(C)C)NC(=O)[C@H](C)N(C)C(=O)[C@H](C(C)C)NC(=O)[C@H](Cc2ccc(-c3ccccc3)cc2)NC1=O` [Example 1336] ({CH2CO}-FY(Carboxymethyl)DWL[Bip]V[NMeA][dL]NLVEC[Orn][Aun]-OH; thioether N-14) yielded an IC50 of 198 nM.
